Measurements from patent US11173195B2, “Immunomodulatory pharmaceutical compositions including a synthetic peptide and transforming growth factor beta” (Enzo Biochem, Inc., priority 2013, dated 2021).
Read-outs that look alike come from different tables or passages of the source.

How the values were obtained:
[1] = test system: blood cells from uveitis patients; conditions: previously found (Wildner and Thurau 1994; Thurau et al. 1997); cited from earlier work
[2] = test system: peripheral blood mononuclear cells (PBMCs) from AMD patients; conditions: for immunostimulatory activity on PBMCs: peptide 20 μg/ml
Protocol: (§1) Accordingly, peripheral blood mononuclear cells of AMD patients were tested to determine whether they would manifest the same type of responses to various synthetic peptides as blood cells from uveitis patients did in an earlier study. See deSmet et al. (2001) Investigative Ophthalmology & Visual Science 42(13):3233-38.
(§2) The cell preparation and assay procedures used in these experiments were essentially as described in DeSmet et al. 2001. In brief, mononuclear lymphocytes were separated on isolymph gradient (Gallard-Schlesinger, Carle Place, N.Y.) from heparinized blood shortly after the sample was obtained. Cells were resuspended in RMPI 1640 with HEPES (Gibco, Grand Island, N.Y.), supplemented with glutamine (2 mM), Penicillin (100 U/ml), streptomycin (100 μg/ml), and 10% commercial heat-inactivated human AB serum (Biocell Laboratories, Carson, Calif.). These cells were immediately placed in culture at a density of 5×10^5 cells/well in the presence of a test peptide at a concentration of 20 μg/ml (or no peptide control), in flat-bottomed, 96-well plates (Costar, Cambridge, Mass.). All assays were plated in triplicate. Peptides were tested simultaneously. For control of immune reactivity, purified protein derivative (PPD; Parke-Davis, Morris Plains, N.J.) and purified phytohemagglutinin (PHA; Murex Diagnostics, Dartford, UK) were also tested. For the last 12 hours before harvesting at day 5, each well was pulsed with [3H]thymidine (2 Ci/mmol, 0.5 μCi per 10 μl/well; New England Nuclear, Boston, Mass.).

[3] = test system: PBMCs from control subjects without AMD
Protocol: as §1, §2

[4] = AMD patients with large drusen (late stage)
[5] = patients with wet AMD (advanced AMD with CNV), day 5
[6] = early stage AMD patients with small drusen

Substance | immunostimulatory in uveitis patients [1] | immunostimulatory activity on PBMCs [2, 4] | immunostimulatory activity on PBMCs [2, 5] | immunostimulatory activity on PBMCs [2, 6] | other results
ALNED LSSWT AADT [Peptide B27PD, reference compound] | immunostimulatory | varying levels of responses | elicit immunoreactive responses | – | –
FLGEL TSSEV ATEV [PDS-Ag, reference compound] | immunostimulatory | varying levels of responses | elicit immunoreactive responses | – | –
LPLLA NNRER RGIAL [Peptide 29] | – | higher average reactivity than Peptide 23 | – | most reactive | –
DTNLA SSTII KEGID [Peptide 31] | – | higher average reactivity than Peptide 23 | – | most reactive | –
GEPIPVTVDVTNNTEKTVKK | – | – | – | – | response from responder T-cells ([3]; healthy individuals): does not elicit a response; response from responder T-cells ([2]; AMD patients, FIG. 1): elicits a response
VTVDVTNNTEKTVKK [Peptide 23] | – | – | – | – | immunostimulatory activity on PBMCs ([3]; control subjects without AMD, peptide 20 μg/ml): little if any stimulation; frequency of induced immunostimulatory response ([2]; AMD patients with large drusen, FIG. 3, comparison of the three agents): more frequently induced an immunostimulatory response than PDS-Ag or B27PD
